Legend:
[1] = tested on: glucose transporter 1 (GLUT-1); settings: Jeong et al. 2011; cited from earlier work
[2] = tested on: vascular endothelial growth factor (VEGF); settings: Jeong et al. 2011; cited from earlier work
[3] = after IP or oral administration; cited from earlier work
[4] = clinical trials (U.S. Pat. No. 3,995,061); cited from earlier work
hnRNP L [5] = assay: Western Blot analysis of hnRNP L in cultured rat primary cortical neurons; assay type: cell-based
Text: Compounds that modify hnRNP L levels are useful for the development of ASD/mental retardation/neurological disorders.

BIN1 = settings: human osteosarcoma cells (U2OS), proteome analysis; cited from earlier work
hnRNP L [6] = settings: cited from earlier work
[7] = human osteosarcoma cells (U2OS), proteome analysis

| Compound | expression of GLUT-1 [1] | expression of VEGF [2] | toxicity as assessed by LD50 [3] | tolerability in clinical trials [4] | levels of hnRNP L (hnRNP L [5]) | increase in BIN1 levels (BIN1) [x] | increase in hnRNP L levels (hnRNP L [6]; [7]) [x] | increase in the levels of three proteins, including hnRNP L and BIN1 (hnRNP L [6]; [7]) [fold] | hnRNP L protein levels in vitro (hnRNP L [6]; in vitro (Kang et al. 2006)) |
| --- | --- | --- | --- | --- | --- | --- | --- | --- | --- |
| COc1c(Cl)c(C)c(C=O)c(O)c1C/C=C(C)/C=C/[C@@]1(C)[C@H](C)CCC(=O)[C@@H]1C [MAC, 4-O-methylascochlorin] | increases the expression | increases the expression | low toxicity | well tolerated |  |  |  |  |  |
| CCOc1c(Cl)c(C)c(C=O)c(O)c1C/C=C(C)/C=C/C1(C)C(C)CCC(=O)C1C (stereo not shown) [4-O-ethyl-ascochlorin, 4-O-ethylascochlorin] |  |  | low toxicity |  |  |  |  |  |  |
| CC(/C=C/[C@@]1(C)[C@H](C)CCC(=O)[C@@H]1C)=C\Cc1c(O)c(Cl)c(C)c(C=O)c1O [ascochlorin] |  |  |  |  | increased levels of hnRNP L | 10 | 12 | ≥ 10 | increase hnRNP L protein levels |

From US20210228531A1, “TARGETED TREATMENT OF AUTISM SPECTRUM DISORDER AND OTHER NEUROLOGICAL OR PSYCHIATRIC DISORDERS” (Tufts Medical Center, Inc., priority 2018, published 2021)
